Assay [1] can be described thus: DRUGMATRIX: Calcium Channel Type L, Dihydropyridine radioligand binding (ligand: [3H] Nitrendipine). It is filed as cell membranes, Rattus norvegicus, Wistar, Cerebral cortex, Membrane. The following applies: Not Active = under 50% inhibition at 10 µM.
For assay [2], the target named is Sigma non-opioid intracellular receptor 1 (Homo sapiens, UniProt Q99720). Description: DRUGMATRIX: Sigma1 radioligand binding (ligand: [3H] Haloperidol). The format is cell membranes, Jurkat, Membrane. Particulars: Not Active = under 50% inhibition at 10 µM.
Chain of Sigma non-opioid intracellular receptor 1 (Q99720 whole entry): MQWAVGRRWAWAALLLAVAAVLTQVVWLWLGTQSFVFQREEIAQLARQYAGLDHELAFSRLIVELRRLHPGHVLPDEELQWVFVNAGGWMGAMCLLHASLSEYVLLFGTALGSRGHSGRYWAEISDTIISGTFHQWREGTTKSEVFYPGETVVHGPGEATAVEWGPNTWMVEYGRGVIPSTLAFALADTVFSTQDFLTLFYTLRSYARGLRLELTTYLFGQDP
A short description of assay [3]: DRUGMATRIX: GABAA, Chloride Channel, TBOB radioligand binding (ligand: [3H] TBOB). The format is cell membranes, Rattus norvegicus, Wistar, Cerebral cortex, Membrane. The following applies: Not Active = under 50% inhibition at 10 µM.
Assay [4] can be described thus: DRUGMATRIX: Glutamate, AMPA radioligand binding (ligand: [3H] AMPA). It is filed as cell membranes, Rattus norvegicus, Wistar, Cerebral cortex, Membrane. Particulars: Not Active = under 50% inhibition at 10 µM.
For assay [5], the target named is T1, Amine oxidase [flavin-containing] A (Homo sapiens, UniProt P21397).
T1 sequence (P21397 whole entry): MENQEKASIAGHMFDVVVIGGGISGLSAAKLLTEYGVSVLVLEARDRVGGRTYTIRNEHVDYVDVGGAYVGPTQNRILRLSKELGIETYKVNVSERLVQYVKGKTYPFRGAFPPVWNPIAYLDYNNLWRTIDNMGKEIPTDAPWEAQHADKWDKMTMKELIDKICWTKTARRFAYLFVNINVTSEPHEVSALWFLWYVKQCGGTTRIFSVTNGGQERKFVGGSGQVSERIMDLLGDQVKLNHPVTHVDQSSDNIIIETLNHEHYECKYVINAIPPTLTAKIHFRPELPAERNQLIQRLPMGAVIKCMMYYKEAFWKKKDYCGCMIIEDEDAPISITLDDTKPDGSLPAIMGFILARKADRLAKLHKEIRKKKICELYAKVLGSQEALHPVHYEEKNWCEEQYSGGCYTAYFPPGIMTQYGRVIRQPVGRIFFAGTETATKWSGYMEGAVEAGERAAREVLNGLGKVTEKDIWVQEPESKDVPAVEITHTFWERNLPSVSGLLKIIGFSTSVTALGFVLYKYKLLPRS
Put plainly: DRUGMATRIX: Monoamine Oxidase MAO-A enzyme inhibition (substrate: Kynuramine). Further details: species or system BTI-TN-5B1-4. Particulars: bti-tn-5b1-4; Not Active = under 50% inhibition at 10 µM.

The target in a further assay is T2, Progesterone receptor (Bos taurus, UniProt Q690N0).
T2 sequence (Q690N0 whole entry): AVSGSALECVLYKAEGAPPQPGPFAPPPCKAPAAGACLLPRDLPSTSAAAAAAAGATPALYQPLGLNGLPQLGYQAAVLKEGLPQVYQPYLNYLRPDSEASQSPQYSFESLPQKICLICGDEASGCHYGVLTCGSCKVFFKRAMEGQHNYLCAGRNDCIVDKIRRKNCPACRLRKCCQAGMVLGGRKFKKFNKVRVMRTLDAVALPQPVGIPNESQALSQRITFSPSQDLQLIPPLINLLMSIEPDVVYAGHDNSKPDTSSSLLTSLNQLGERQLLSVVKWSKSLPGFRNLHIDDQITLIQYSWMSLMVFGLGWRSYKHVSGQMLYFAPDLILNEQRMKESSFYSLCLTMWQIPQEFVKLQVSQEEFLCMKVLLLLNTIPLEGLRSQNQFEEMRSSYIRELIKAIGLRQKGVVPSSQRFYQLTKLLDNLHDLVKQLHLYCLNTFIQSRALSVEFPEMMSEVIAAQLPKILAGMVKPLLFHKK
Description: DRUGMATRIX: Progesterone radioligand binding (ligand: [3H] R-5020). The format is tissue-based, Uterus. Particulars: Not Active = under 50% inhibition at 10 µM.

For the molecule `N[C@@H](Cn1ccc(=O)c(O)c1)C(=O)O` [L-MIMOSINE], the IC50 entry (in assay [1]; in assay [2] (jurkat); in assay [3]; in assay [4]; in assay [5]; on Progesterone receptor) was “Not Active” throughout. For the same molecule, the Ki result in assay [1], in assay [3] and in assay [4] was “Not Active” throughout.

Regarding `C[N+](C)(C)C[C@H](O)CC(=O)[O-]` [LEVOCARNITINE], the IC50 result (in assay [1]; in assay [2] (jurkat); in assay [3]; in assay [4]; in assay [5]; on Progesterone receptor) was “Not Active” each time. Besides, the Ki result in assay [1], in assay [3] and in assay [4] was “Not Active” in each case.

Take `C[C@H]1COc2c(N3CCN(C)CC3)c(F)cc3c(=O)c(C(=O)O)cn1c23.C[C@H]1COc2c(N3CCN(C)CC3)c(F)cc3c(=O)c(C(=O)O)cn1c23.O` [LEVOFLOXACIN]: the IC50 entry (in assay [1]; in assay [2] (jurkat); in assay [3]; in assay [4]; in assay [5]; on Progesterone receptor) was “Not Active” throughout. Besides, the Ki result in assay [1], in assay [3] and in assay [4] was “Not Active” each time.

Take `CCn1cc(C(=O)O)c(=O)c2cc(F)c(N3CCNC(C)C3)c(F)c21` (centres undefined) [LOMEFLOXACIN]: the IC50 entry (in assay [1]; in assay [2] (jurkat); in assay [3]; in assay [4]; in assay [5]; at Progesterone receptor) was “Not Active” throughout. Also, the Ki entry in assay [1], in assay [3] and in assay [4] was “Not Active” throughout.

Take `CN1CCCC(CN2c3ccccc3Sc3ccccc32)C1` (centres undefined) [MEPAZINE]: the IC50 entry in assay [1] is “Not Active”; in assay [2] (read-out: IC50) it was 180 nM; in assay [3], “Not Active”; in assay [4], “Not Active”; in assay [5], “Not Active”; on Progesterone receptor, “Not Active”. The Ki result was “Not Active” in assay [1], 76 nM in assay [2] (read-out: Ki), “Not Active” in assay [3] and “Not Active” in assay [4].

Take `Cc1cccc(C)c1NC(=O)C1CCCCN1C` (centres undefined) [MEPIVACAINE]: the IC50 entry (in assay [1]; in assay [2] (jurkat); in assay [3]; in assay [4]; in assay [5]; on Progesterone receptor) was “Not Active” in each case. Also, the Ki result in assay [1], in assay [3] and in assay [4] was “Not Active” throughout.

With `CN(C)C(=N)NC(=N)N` [METFORMIN], the IC50 result (in assay [1]; in assay [2] (jurkat); in assay [3]; in assay [4]; in assay [5]; on Progesterone receptor) was “Not Active” each time. The Ki entry in assay [1], in assay [3] and in assay [4] was “Not Active” each time.

As for `CC(C)(C)NCC(O)COc1cccc2c1CC(O)C(O)C2` (centres undefined) [NADOLOL], the IC50 result (in assay [1]; in assay [2] (jurkat); in assay [3]; in assay [4]; in assay [5]; at Progesterone receptor) was “Not Active” throughout. Further, the Ki result in assay [1], in assay [3] and in assay [4] was “Not Active” throughout.

Turning to `C[C@]12CC[C@H]3[C@@H](CCC4=CC(=O)CC[C@@H]43)[C@@H]1CC[C@@H]2O` [NANDROLONE], the IC50 result in assay [1] was “Not Active”; in assay [2] (jurkat) it was “Not Active”; in assay [3], “Not Active”; in assay [4], “Not Active”; in assay [5], “Not Active”; on Progesterone receptor (read-out: IC50), 172 nM. In addition, the Ki result in assay [1] is “Not Active”; in assay [3], “Not Active”; in assay [4] it was “Not Active”; at Progesterone receptor (read-out: Ki), 22.4 nM.

Turning to `C[C@@H]1C/C=C/C=C/C=C/C=C/[C@H](O[C@@H]2O[C@H](C)[C@@H](O)[C@H](N)[C@@H]2O)C[C@@H]2O[C@](O)(C[C@@H](O)C[C@H]3O[C@@H]3/C=C/C(=O)O1)C[C@H](O)[C@H]2C(=O)O` [NATAMYCIN], the IC50 entry (in assay [1]; in assay [2] (jurkat); in assay [3]; in assay [4]; in assay [5]; at Progesterone receptor) was “Not Active” each time. Moreover, the Ki result in assay [1], in assay [3] and in assay [4] was “Not Active” throughout.

For `CN(C)C(=O)Oc1cccc([N+](C)(C)C)c1.[Br-]` [NEOSTIGMINE BROMIDE], the IC50 entry (in assay [1]; in assay [2] (jurkat); in assay [3]; in assay [4]; in assay [5]; on Progesterone receptor) was “Not Active” each time. In addition, the Ki result in assay [1], in assay [3] and in assay [4] was “Not Active” in each case.

Regarding `NC(=O)c1cccnc1` [NIACINAMIDE], the IC50 entry (in assay [1]; in assay [2] (jurkat); in assay [3]; in assay [4]; in assay [5]; at Progesterone receptor) was “Not Active” in each case. For the same molecule, the Ki entry in assay [1], in assay [3] and in assay [4] was “Not Active” in each case.

Turning to `CS(=O)(=O)Nc1ccc([N+](=O)[O-])cc1Oc1ccccc1` [NIMESULIDE], the IC50 entry (in assay [1]; in assay [2] (jurkat); in assay [3]; in assay [4]; in assay [5]; at Progesterone receptor) was “Not Active” throughout. In addition, the Ki entry in assay [1], in assay [3] and in assay [4] was “Not Active” throughout.

Take `CN1C(=O)CN=C(c2ccccc2)c2cc([N+](=O)[O-])ccc21` [NIMETAZEPAM]: the IC50 result (in assay [1]; in assay [2] (jurkat); in assay [3]; in assay [4]; in assay [5]; on Progesterone receptor) was “Not Active” in each case. Further, the Ki result in assay [1], in assay [3] and in assay [4] was “Not Active” throughout.

As for `COc1ccc2c(c1OC)C(=O)O[C@@H]2[C@H]1c2c(cc3c(c2OC)OCO3)CCN1C` [NOSCAPINE], the IC50 result (in assay [1]; in assay [2] (jurkat); in assay [3]; in assay [4]; in assay [5]; on Progesterone receptor) was “Not Active” in each case. For the same molecule, the Ki result in assay [1], in assay [3] and in assay [4] was “Not Active” in each case.

`C[C@@H]1O[C@@H](O[C@H]2C[C@@H](O)[C@]3(CO)[C@H]4[C@H](O)C[C@]5(C)[C@@H](C6=CC(=O)OC6)CC[C@]5(O)[C@@H]4CC[C@]3(O)C2)[C@H](O)[C@H](O)[C@H]1O` [OUABAIN]: the IC50 entry (in assay [1]; in assay [2] (jurkat); in assay [3]; in assay [4]; in assay [5]; on Progesterone receptor) was “Not Active” each time. The Ki result in assay [1], in assay [3] and in assay [4] was “Not Active” throughout.

For the molecule `NC(=O)N1c2ccccc2CC(=O)c2ccccc21` [OXCARBAZEPINE], the IC50 entry (in assay [1]; in assay [2] (jurkat); in assay [3]; in assay [4]; in assay [5]; on Progesterone receptor) was “Not Active” each time. In addition, the Ki entry in assay [1], in assay [3] and in assay [4] was “Not Active” each time.

Regarding `COc1ccnc(C[S+]([O-])c2nc3ccc(OC(F)F)cc3[nH]2)c1OC` (centres undefined) [PANTOPRAZOLE], the IC50 result (in assay [1]; in assay [2] (jurkat); in assay [3]; in assay [4]; in assay [5]; on Progesterone receptor) was “Not Active” in each case. The Ki result in assay [1], in assay [3] and in assay [4] was “Not Active” each time.

As usually defined, the IC50 is the concentration needed to halve the response being measured. Broadly, the Ki is the equilibrium dissociation constant of an inhibitor or competing ligand from its target.

Source of the values: ChEMBL document CHEMBL1909046, “DrugMatrix in vitro pharmacology data”.
